# US20020137733A1, “Macrocyclic anti-viral compounds” (priority 2000, published 2002)
# Where two headings read alike, the source gives them in different places.
# Tests used:
# VZV YS strain = assay: Anti-VZV plaque assay, YS strain (Tk+); format: cell-based, varicella zoster virus; conditions: read-out: ANTI-VZV ACTIVITY EC50 Plaque assay VZV Tk+ YS strain
# Protocol: (§1) Human embryonic lung fibroblast (HEL) cells were grown in 96-well plates at the confluent stage and then were infected with reference strains VZV expressing viral thymidine kinase (YS and Oka) or lacking the viral thymidine kinase (07-1 and YS-R) at 20 plaque-forming units (PFU) for plaque assay. After a 2 hours incubation, residual virus was removed and the infected cells were further incubated with Eagle's MEM culture medium supplemented with 2% inactivated FCS (fetal calf serum), 1% L-glutamine and 0.3% sodium bicarbonate containing dilution of the test compounds (in duplicate) After 5 days incubation at 37 C. in 5% CO2 atmosphere, cells were fixed with ethanol and stained with 2.5% Giemsa solution. Virus plaque formation was monitored microscopically. […] IC50 values were estimated from graphic plots of the number of plaques (percentage of control) as a function of the concentration of the test compounds.
# Vero cells = assay: Cytotoxicity, alteration of cell morphology (MTC), Vero cells; format: cell-based; conditions: Table 1
# Source text: (§2) Method 10. Cytotoxicity Measurements Based on Alteration of Cell Morphology
# (§3) Minimum toxic concentration which is expressed as MTC, is the minimum concentration of compound required to cause microscopically detectable alteration in normal cell morphology.
# (§4) MTC: Minimal toxic concentration or minimal concentration required to alter normal cell morphology (Visual examination)
# HSV-2 G = assay: Anti-HSV CPE assay, HSV-2 G; format: cell-based, herpes simplex virus type 2
# Protocol: (§5) Human embryonic lung fibroblast (HEL) cells and Vero cells were propagated in minimal essential medium (MEM) supplemented with 10% fetal calf serum, L-glutamine, and bicarbonate. A CPE assay was used, confluent cultures of HEL or Vero cells grown in 96-well microtiter plates were inoculated with 100 times the 50% cell culture infective dose of the different HSV strains (HSV-1 KOS; HSV-1 Tk−, which is deficient for thymidine kinase; and HSV-2 G). Compounds were added after a 2 hours virus adsorption period. After 2 to 3 days incubation at 37 C. in 5% CO2 atmosphere, cells were fixed with ethanol and stained with 2.5% Giemsa solution. Virus-induced cytopathic effect (CPE) was then recorded microscopically. […] IC50 values were estimated from graphic plots of the number of plaques (percentage of control) or percentage of cytopathocity as a function of the concentration of the test compounds. Control compounds ganciclovir (GCV) and cidofovir ([(S)-1-(3-hydroxy-2-phosphonylmethoxypropyl)cytosine], HPMPC) were run in parallel.
# HSV-1 KOS = assay: Anti-HSV CPE assay, HSV-1 KOS; format: cell-based, herpes simplex virus type 1
# Protocol: as §5
# HSV-1 Tk− = assay: Anti-HSV CPE assay, HSV-1 Tk- (thymidine kinase deficient); format: cell-based, herpes simplex virus type 1
# Protocol: as §5
# HEL cells = assay: Cytotoxicity, alteration of cell morphology (MTC), HEL cells; conditions: for CYTOTOXICITY MTC HEL: Table 1 (anti-HSV study)
# Source text: as §2, §3, §4
# VZV OKA strain = assay: microbe, parasite or virus in culture; format: cell-based, varicella zoster virus; conditions: Human alphaherpesvirus 3, HEL, read-out: ANTI-VZV ACTIVITY EC50 Plaque assay VZV Tk+ OKA strain
# Protocol: as §1
# VZV 07/1 strain = assay: microbe, parasite or virus in culture; format: cell-based, varicella zoster virus; conditions: Human alphaherpesvirus 3, HEL, read-out: ANTI-VZV ACTIVITY EC50 Plaque assay VZV Tk− 07/1 strain
# Protocol: as §1
# VZV YS/R strain = assay: microbe, parasite or virus in culture; format: cell-based, varicella zoster virus; conditions: Human alphaherpesvirus 3, HEL, read-out: ANTI-VZV ACTIVITY EC50 Plaque assay VZV Tk− YS/R strain
# Protocol: as §1
# [1] = Cytotoxicity, inhibition of cell growth (CC50), P3HR cells; format: cell-based; conditions: human, Coulter counter
# Protocol: (§6) Method 9. Cytotoxicity Measurements Based on the Inhibition of Cell Growth
# (§7) Cells were seeded at a rate of 5×10^3 cells/well in 96-well plates and allowed to proliferate 24 hours. Different concentrations of the test compounds were then added (in duplicates), and after 3 days of incubation at 37 C. in 5% CO2 atmosphere, the cell number was determined with a coulter counter.
# HCMV Davis [2] = assay: Anti-HCMV plaque assay; format: cell-based, cytomegalovirus; conditions: for EC50: Human betaherpesvirus 5, HEL
# Protocol: (§8) Method 4. Anti-HCMV Assay
# (§9) Human embryonic lung fibroblast cells (HEL) were grown in 96-well plates at the confluent stage and then were infected with reference strains of HCMV Davis at 8, 20, 38 plaque-forming units (PFU)/well for plaque assay or at 100 PFU/well for cytopathic effect (CPE) assay. After a 2 hours incubation, residual virus was removed and the infected cells were further incubated with Eagle's MEM culture medium supplemented with 2% inactivated FCS (fetal calf serum), 1% L-glutamine and 0.3% sodium bicarbonate containing dilution of the test compounds (in duplicate). After 7 days incubation at 37 C. in 5% CO2 atmosphere, cells were fixed with ethanol and stained with 2.5% Giemsa solution. Virus plaque formation or viral cytopathic effect were monitored microscopically. […] IC50 values were estimated from graphic plots of the number of plaques (percentage of control) or percentage of cytopathocity as a function of the concentration of the test compounds. Control compounds ganciclovir (GCV) and cidofovir ([(S)-1-(3-hydroxy-2-phosphonylmethoxypropyl)cytosine], HPMPC) were run in parallel.
# in vitro = format: cell-based; conditions: human
# Source text: Method 11. Cytotoxicity Measurements Based on Reduction of Total Cellular DNA Content Expressed as CC50*
# EBV = assay: Anti-EBV assay, EBV-specific DNA/DNA hybridization in P3HR-1 cells; format: cell-based, Epstein-Barr virus; conditions: read-out: ANTI-EBV ACTIVITY EC50 DNA hybridiation assay
# Protocol: To determine the effects of the compounds on EBV replication, exponentially growing P3HR-1 cells were treated for 14 days with various concentrations of the compounds. The cells were then harvested, and the genome copy numbers were determined using EBV-specific DNA/DNA hybridization technique. […] Control compound cidofovir ([(S)-1-(3-hydroxy-2-phosphonylmethoxypropyl)cytosine], HPMPC) was run in parallel.
# [3] = Cytotoxicity, inhibition of cell growth (CC50), HEL cells; format: cell-based; conditions: human, Coulter counter
# Protocol: as §6, §7
# HCMV Davis [4] = assay: Anti-HCMV CPE assay; format: cell-based, cytomegalovirus; conditions: HEL cells, 100 PFU/well; for EC50: Human betaherpesvirus 5, HEL, read-out: ANTI-HCMV ACTIVITY EC50 HCMV-Davis CPE 100/well (96 well)
# Protocol: as §8, §9
# [5] = Human alphaherpesvirus 2, Vero, Vero cells, read-out: ANTI-HSV ACTIVITY EC50 CPE assay HSV-2-G Vero
# [6] = Human alphaherpesvirus 1, Vero cells, read-out: ANTI-HSV ACTIVITY EC50 CPE assay HSV-1-KOS Vero
# [7] = Human alphaherpesvirus 1, Vero, read-out: ANTI-HSV ACTIVITY EC50 CPE assay HSV-1Tk- Vero, Vero cells
# [8] = Human alphaherpesvirus 1, HEL, read-out: ANTI-HSV ACTIVITY EC50 CPE assay HSV-1Tk- HEL, HEL cells
# [9] = Human alphaherpesvirus 1, HEL cells, read-out: ANTI-HSV ACTIVITY EC50 CPE assay HSV-1-KOS HEL
# [10] = HEL cells, 8 PFU/well, read-out: ANTI-HCMV ACTIVITY EC50 HCMV-Davis Plaque assay 8/well
# [11] = HEL cells, 38 PFU/well, read-out: ANTI-HCMV ACTIVITY EC50 HCMV-Davis Plaque assay 38/well
SMILES,CYTOTOXICITY MTC Vero (Vero cells),EC50 (HSV-2 G; [5]),EC50 (HSV-1 KOS; [6]),EC50 (HSV-1 Tk−; [7]),"EC50 (VZV YS strain; Human alphaherpesvirus 3, HEL)",CYTOTOXICITY HEL cells MTC (HEL cells; Table 3 (anti-VZV study)),EC50 (VZV OKA strain),EC50 (VZV 07/1 strain),EC50 (VZV YS/R strain),CYTOTOXICITY MTC HEL (HEL cells),CC50 at 3 days [1],CC50 (in vitro),EC50 (HSV-1 Tk−; [8]),CC50 at 3 days [3],CYTOTOXICITY HEL cells MTC (HEL cells; Table 4 (anti-HCMV study)),EC50 (HSV-1 KOS; [9]),EC50 (HCMV Davis [4]),EC50 (HCMV Davis [2]; [10]),EC50 (HCMV Davis [2]; [11]),also measured
"Nc1nc2c(ncn2COCCO)c(=O)[nH]1 [ACV, acyclovir]",>10 µg/mL,1.3 µg/mL,2.4 µg/mL,33 µg/mL,–,–,–,–,–,–,–,–,–,–,–,–,–,–,–,"EC50 (VZV YS strain; Human alphaherpesvirus 3, HEL cells, 20 PFU): 0.69 µg/mL"
"O=c1[nH]c(=O)n([C@H]2C[C@H](O)[C@@H](CO)O2)cc1/C=C/Br [BVDU, (E)-5-(2-bromovinyl)-2′-deoxyuridine]",–,–,–,–,0.0013 µg/mL,>50 µg/mL,0.0013 µg/mL,4 µg/mL,39 µg/mL,–,–,–,–,–,–,–,–,–,–,–
O=C1NCc2ccccc2OCC/C=C/c2cncc3ccc1nc23 [Compound #1],25 µg/mL,–,–,1.1 µg/mL,0.05 µg/mL,>2 µg/mL,0.06 µg/mL,0.06 µg/mL,0.05 µg/mL,6 µg/mL,0.7 µg/mL,2.6 µg/mL,0.062 µg/mL,0.1 µg/mL,–,–,–,–,–,"EC50 (HSV-2 G; Human alphaherpesvirus 2, HEL, read-out: ANTI-HSV ACTIVITY EC50 CPE assay HSV-2-G HEL): 0.138 µg/mL; EC50 (HSV-2 G; Human alphaherpesvirus 2, Vero, read-out: ANTI-HSV ACTIVITY EC50 CPE assay HSV-2-G Vero): 0.009 µg/mL; EC50 (HSV-1 KOS; Human alphaherpesvirus 1, HEL, read-out: ANTI-HSV ACTIVITY EC50 CPE assay HSV-1-KOS HEL): 0.098 µg/mL; EC50 (HSV-1 KOS; Human alphaherpesvirus 1, Vero, read-out: ANTI-HSV ACTIVITY EC50 CPE assay HSV-1-KOS Vero): 0.52 µg/mL; EC50 (HCMV Davis [2]; read-out: ANTI-HCMV ACTIVITY EC50 HCMV-Davis Plaque assay 8/well): < 0.0015 µg/mL; EC50 (HCMV Davis [2]; read-out: ANTI-HCMV ACTIVITY EC50 HCMV-Davis Plaque assay 20/well): < 0.0015 µg/mL; EC50 (HCMV Davis [2]; read-out: ANTI-HCMV ACTIVITY EC50 HCMV-Davis Plaque assay 38/well): 0.003 µg/mL; EC50 (EBV; human gammaherpesvirus 4, P3HR-1, 336 h): < 0.2 µg/mL"
"Nc1nc(O)c2ncn(COC(CO)CO)c2n1 [GCV, 9-[(1,3-dihyroxy-2-propoxy)methyl]guanine]",>100 µg/mL,1.2 µg/mL,2.6 µg/mL,> 100 µg/mL,–,–,–,–,–,>100 µg/mL,–,–,12.5 µg/mL,23 µg/mL,>100 ug/m/,0.01 µg/mL,0.98 µg/mL,0.94 µg/mL,> 100 µg/mL,"ANTI-HCMV ACTIVITY EC50 HCMV-Davis CPE 100/well (96 well) (HCMV Davis [4]): 0.78 µg/mL; ANTI-HCMV ACTIVITY EC50 HCMV-Davis Plaque assay 8/well (HCMV Davis [2]; HEL cells, 8 PFU/well): 0.86 µg/mL; ANTI-HSV ACTIVITY EC50 CPE assay HSV-1Tk- HEL (HSV-1 Tk−; HEL cells): 17.4 µg/mL"
"Nc1ccn(C[C@@H](CO)OCP(=O)(O)O)c(=O)n1 [HPMPC, (S)-1-(3-hydroxy-2-phosphonylmethoxypropyl)cytosine]",>100 µg/mL,1.3 µg/mL,6.7 µg/mL,2.4 µg/mL,–,–,–,–,–,>100 µg/mL,30 µg/mL,> 25 µg/mL,0.012 µg/mL,11 µg/mL,>100 ug/m/,0.098 µg/mL,0.1 µg/mL,0.15 µg/mL,1.9 µg/mL,"EC50 (HSV-2 G; Human alphaherpesvirus 2, HEL, HEL cells, read-out: ANTI-HSV ACTIVITY EC50 CPE assay HSV-2-G HEL): 0.01 µg/mL; EC50 (HCMV Davis [2]; HEL cells, 20 PFU/well, read-out: ANTI-HCMV ACTIVITY EC50 HCMV-Davis Plaque assay 20/well): 0.14 µg/mL; EC50 (EBV; human gammaherpesvirus 4, 336 h, P3HR-1 cells, treated 14 days): < 25 µg/mL"
